For data set [1], the system named is phosphorylated ERK1/2 (pERK). Nature of the data set: in vitro pERK inhibition in DETROIT-562 cells. It is filed as cell-based. The settings on record: Homo sapiens. From the text: (§1) SHP2 inhibition can be measured by assessing biomarkers within the MAPK signaling pathway, such as decreased levels of phosphorylated ERK1/2 (pERK) and downregulation of dual specificity phosphatase 6 (DUSP6) mRNA transcript.

Data set [2] has as its system DETROIT-562 (pharyngeal squamous cell carcinoma). Nature of the data set: antiproliferation in DETROIT-562 cells. It is filed as cell-based. The settings on record: Homo sapiens.
For data set [3], the system named is KYSE-520 (esophageal squamous cell carcinoma). Nature of the data set: antiproliferation in KYSE-520 cells. Format: cell-based. The following applies: Homo sapiens.
The subject of data set [4] is Cyclin D1, phospho-RB in HCC827 cells. Nature of the data set: immunoblot of signalling proteins in HCC827 cells. Format: cell-based. The following applies: HCC827, 48 hours treatment, TNO155 together with ribociclib (FIG. 2). For orientation: In western blotting, separated proteins are transferred to a membrane and probed.
Procedure: HCC827 cells were plated in 6-well plates at a density of 2×10^5 cells/well in 2 ml of complete culture medium. […] 48 hours after the treatment, cells were harvested in freshly prepared RIPA cell lysis buffer supplemented with Protease and Phosphatase Inhibitor Cocktail. Proteins extracted from cell lysates were separated by electrophoresis using a NuPAGE 4-12% Bis-Tis gel and were transferred to nitrocellulose membranes, followed by standard immunobloting procedures. The primary antibodies used were all from Cell Signaling Technology with the following catalog numbers: phospho-RB (S807/811, #8516), Cyclin D1 (#2978), cleaved PARP (#9546), phospho-ERK (T202/Y204, #4370), phospho-RSK3 (T356/S360, #9348), phospho-AKT (S473, #4060) and Tubulin (#3873). The signals were visualized by simantanous incubation with goat anti-rabbit secondary antibodies conjugated with Alexa Fluor® 700 and the goat anti-mouse secondary antibody conjugated with IRDye 800 CW for Tubulin (protein loading control) and scanning with an Odyssey Infrared Imager System.
Another data set has as its system tumor DUSP6 biomarker. The experiment in a line: dose fractionation studies with tumor DUSP6 biomarker. It is filed as in vivo. The following applies: attained for at least 80% of the dosing interval.
Text: as §1

Data set [5] deals with lineage-matched pRb-negative cell lines. Nature of the data set: cell cycle progression in pRb-negative cell lines. It is filed as cell-based.
Another data set is described as follows: tolerability in rats. It is filed as in vivo.
The test system of another data set is tumor xenograft models. Nature of the data set: in vivo anti-tumor activity in tumor xenograft models. The settings on record: subsets of xenograft models incl. breast, melanoma, neuroblastoma, malignant rhabdoid, lung, pancreas, hematological malignancies.
For data set [6], the system named is pRb-positive cell lines derived from diverse cancer types. The experiment in a line: pRb phosphorylation and cell cycle in pRb-positive cell lines. Format: cell-based. The settings on record: more than 40 pRb-positive cell lines.
A further data set is described as follows: tolerability in mice. It is filed as in vivo.
Setting [7] is: up to 28 days, up to 150 mg/kg once daily orally.
Setting [8] is: up to 28 days, up to 250 mg/kg once daily orally.

Converted amounts (≈) assume the structure as drawn.

A word on the IC50: it is the concentration at which inhibition is half-maximal. A low value points to higher potency. For `C[C@@H]1OCC2(CCN(c3cnc(Sc4ccnc(N)c4Cl)c(N)n3)CC2)[C@@H]1N` [TNO155, (3S,4S)-8-(6-amino-5-((2-amino-3-chloropyridin-4-yl)thio)pyrazin-2-yl)-3-methyl-2-oxa-8-azaspiro[4.5]decan-4-amine], the figures for the IC50 in data set [1], in [2] and in [3] were 0.0148 µg/mL (≈ 0.0351 µM), 0.198 µg/mL (≈ 0.47 µM) and 0.0422 µg/mL (≈ 0.1 µM), respectively. In addition, the “ribociclib-induced cyclin D1 accumulation” value in data set [4] is reported as “prevention of ribociclib-induced cyclin D1 accumulation”. The “PD inhibition at which maximal efficacy is achieved” value in the data set with tumor DUSP6 biomarker came out at 50%.

For the compound `CN(C)C(=O)c1cc2cnc(Nc3ccc(N4CCNCC4)cn3)nc2n1C1CCCC1` [ribociclib, 7-cyclopentyl-N,N-dimethyl-2-((5-(piperazin-1-yl)pyridin-2-yl)amino)-7H-pyrrolo[2,3-d]pyrimidine-6-carboxamide], the “effect on cell cycle progression” value in [5] is reported as “no effect”. In “tolerability in rats” (correlated with pRb inhibition), the myelosuppression entry was “myelosuppression was observed”. In “tolerability in rats” (setting [7]), the body weight loss was at most 12.5% and the tolerability result is “well-tolerated”. For the same compound, the “in vivo anti-tumor activity” value in the data set with tumor xenograft models is given as “demonstrated in vivo anti-tumor activity”. Besides, in data set [6], the “G1 to S phase cell cycle progression” value is listed as “interfered” and the “Retinoblastoma protein (pRb) phosphorylation” value is “inhibited”. Moreover, the myelosuppression entry in “tolerability in mice” (correlated with pRb inhibition) is “myelosuppression was observed”. Moreover, in the data set “tolerability in mice” (setting [8]), the body weight loss is reported as at most 12.5% and the tolerability result is “well-tolerated”.

(Values after patent publication US12343344B2 (NOVARTIS AG, priority 2019, dated 2025).)
